Laboratory results reported in patent US10358455B2, “Arene ruthenium complex, preparation method and utilization thereof” (Guangdong Pharmaceutical University, priority 2017, dated 2019).

System: MDA-MB-231 breast cancer cells
Test: MTT assay on MDA-MB-231 breast cancer cells
Assay type: cell-based
Conditions: 72 h, 5-80 μM, read-out: The inhibitory effect IC50 on MDA-MB-231 breast cancer cells
Method: The Anti-Invasion Activities of Arene Ruthenium (II) Complexes Against MDA-MB-231 Breast Cancer Cells.
The anti-invasion activities of arene ruthenium (II) complexes against MDA-MB-231 breast cancer cells was evaluated by MTT assay. Discarding the medium of the MDA-MB-231 breast cancer cells in exponential growth phase, washing the cells twice with phosphate-buffered saline (PBS), dissociating into single cells by digesting with 1 mL trypsin, counting the cells. Adding fresh medium to dilute cell population to 1.5×10^4 cells/mL, inoculating into 96-well tissue culture plates (3×10^3 cells per well) with 200 μL/well in 6 wells of each group, repeating twice, and then culturing at 37° C. in 5% CO2 saturated humidity incubator for 16 h. After adherent cells are apparent, removing the supernatant carefully and adding DMEM media. Meanwhile, the cells were incubated with different concentrations of arene ruthenium (II) complexes with a final concentration of 5, 10, 20, 40 and 80 μM respectively and maintain the total volume at 200 μL/well. Thereafter, the cells were cultured for 72 h. At the end of incubation, 20 μL/well of MTT solution (5 mg/mL) was added and incubated for 4 h. Removing the supernatant carefully and replaced with 150 μL/well of DMSO and oscillated for 10 mins to ensure complete dissolution of the formazan crystallization. The absorbance values were measured at 490 nm using a microplate reader. Cell viability was calculated according to the following formula: Cell viability (%)=A490 nm (cells in experimental group)/A490 nm (cells in control group)×100%
According to the values of cell viability, calculating the inhibitory activities (IC50) of the target complex against MDA-MB-231 cells.

| Compound | IC50 [µM] |
| --- | --- |
| [(η^6-p-cymene)Ru(p-CF3PIP)Cl]Cl [RAP083] | 6.27 ± 0.29 |
| [(η^6-p-cymene)Ru(p-CH3PIP)Cl]Cl [RAP273] | 9.6 ± 0.3 |
| N.N.[Cl][Pt][Cl] [cis-platin, reference compound] | 17.8 ± 0.9 |
| [(η^6-p-cymene)Ru(p-BrPIP)Cl]Cl [RAP07] | 8.33 ± 0.6 |
| [(η^6-p-cymene)Ru(m-BrPIP)Cl]Cl [RAP062] | 9.2 ± 0.3 |

Second part, the compound after the results:

| IC50 [µM] | Compound |
| --- | --- |
| 3.2 ± 0.1 | [(η^6-p-cymene)Ru(p-IPIP)Cl]Cl [RAP073] |
| 6.4 ± 0.16 | [(η^6-p-cymene)Ru(p-N(CH3)2PIP)Cl]Cl [RAP093] |

System: rat glioma C6 cancer cells
Test: MTT assay on rat glioma C6 cells
Assay type: cell-based
Conditions: 72 h, 5-80 μM, read-out: The inhibitory effect IC50 on rat glioma C6 cancer cells
Method: The Antiproliferative Activities of Arene Ruthenium (II) Complexes Against Rat Glioma C6 Cancer Cells.
(§1) The antiproliferative effects of arene ruthenium (II) complex against rat glioma C6 cells were evaluated by MTT assay. Discarding the medium of the rat glioma C6 cells in exponential growth phase, washing the cells twice with phosphate-buffered saline (PBS), dissociating into single cells by digesting with 1 mL trypsin, counting the cells. Adding fresh medium to dilute cell population to 1.5×10^4 cells/mL, inoculating into 96-well tissue culture plates (3×10^3 cells per well) with 200 μL/well in 6 wells of each group, repeating twice, and then culturing at 37° C. in 5% CO2 saturated humidity incubator for 16 h. After adherent cells are apparent, removing the supernatant carefully and adding DMEM media. Meanwhile, the cells were incubated with different concentrations of arene ruthenium (II) complexes with a final concentration of 5, 10, 20, 40 and 80 μM respectively, and maintain the total volume at 200 μL/well. Thereafter, the cells were cultured for 72 h. At the end of incubation, 20 μL/well of MTT solution (5 mg/mL) was added and incubated for 4 h. Removing the supernatant carefully and replaced with 150 μL/well of DMSO and oscillated for 10 min to ensure complete dissolution of the formazan crystallization. The absorbance values were measured at 490 nm using a microplate reader. Cell viability was calculated according to the following formula: Cell viability (%)=A490 nm (cells in experimental group)/A490 nm (cells in control group)×100%
According to the values of cell viability, calculating the inhibitory activities (IC50) of the target complex against rat glioma C6 cells.

| Compound | IC50 [µM] |
| --- | --- |
| [(η^6-p-cymene)Ru(p-CF3PIP)Cl]Cl [RAP083] | 4.5 ± 0.07 |
| [(η^6-p-cymene)Ru(p-BrPIP)Cl]Cl [RAP07] | 5.6 ± 0.2 |
| [(η^6-p-cymene)Ru(m-BrPIP)Cl]Cl [RAP062] | 5.4 ± 0.17 |

Next, values leading:

| IC50 [µM] | Compound |
| --- | --- |
| 1.2 ± 0.3 | [(η^6-p-cymene)Ru(p-FPIP)Cl]Cl [RAP04] |
| 2.4 ± 0.05 | [(η^6-p-cymene)Ru(p-NO2PIP)Cl]Cl [RAP143] |
| 5.6 ± 0.11 | [(η^6-p-cymene)Ru(p-N(CH3)2PIP)Cl]Cl [RAP093] |

Same assay, conditions: Rattus norvegicus, C6, 72 h, 5-80 μM, read-out: The inhibitory effect IC50 on rat glioma C6 cancer cells

| IC50 [µM] | Compound |
| --- | --- |
| 259 ± 15.5 | Cn1nnc2c(C(N)=O)ncn2c1=O [Temozolomide, reference compound] |

System: nasopharyngeal carcinoma CNE-1 cancer cells
Test: MTT assay on nasopharyngeal carcinoma CNE-1 cells
Assay type: cell-based
Conditions: 72 h, 5-80 μM, read-out: The inhibitory effect IC50 on CNE-1 cancer cells
Method: The Antiproliferative Activities of Arene Ruthenium (II) Complexes Against Nasopharyngeal Carcinoma CNE-1 Cancer Cells.
as §1, with “complex against nasopharyngeal carcinoma CNE-1 cells were” for “complex against rat glioma C6 cells were”, “of the nasopharyngeal carcinoma CNE-1 cells in” for “of the rat glioma C6 cells in”, “80 μM respectively and maintain” for “80 μM respectively, and maintain”, “and incubated at 37° C. for 4” for “and incubated for 4”
According to the values of cell viability, calculating the inhibitory activities (IC50) of the target complex against CNE-1 cancer cells.

| Compound | IC50 [µM] |
| --- | --- |
| N.N.[Cl][Pt][Cl] [cis-platin, reference compound] | 19.1 ± 0.5 |
| [(η^6-p-cymene)Ru(o-OCH3PIP)Cl]Cl [RAP201] | 17.4 ± 0.47 |
| [(η^6-p-cymene)Ru(m-BrPIP)Cl]Cl [RAP062] | 15.7 ± 0.11 |

Next, values leading:

| IC50 [µM] | Compound |
| --- | --- |
| 3.3 ± 0.07 | [(η^6-p-cymene)Ru(p-IPIP)Cl]Cl [RAP073] |
| 11.9 ± 0.73 | [(η^6-p-cymene)Ru(p-N(CH3)2PIP)Cl]Cl [RAP093] |

System: A549 lung adenocarcinoma cancer cells
Test: MTT assay on A549 lung adenocarcinoma cells
Assay type: cell-based
Conditions: 72 h, 5-80 μM, read-out: The inhibitory effect IC50 on A549 lung adenocarcinoma cancer cells
Method: The Antiproliferative Activities of Arene Ruthenium (II) Complexes Against A549 Lung Adenocarcinoma Cancer Cells
as §1, with “complex against A549 lung adenocarcinoma cells were” for “complex against rat glioma C6 cells were”, “MTT assay. Discarded the medium” for “MTT assay. Discarding the medium”, “of the A549 lung adenocarcinoma cells in” for “of the rat glioma C6 cells in”, “80 μM respectively and maintain” for “80 μM respectively, and maintain”, “and incubated at 37° C. for 4” for “and incubated for 4”
According to the values of cell viability, calculating the inhibitory activities (IC50) of the target complex against A549 lung adenocarcinoma cancer cells.

| IC50 [µM] | Compound |
| --- | --- |
| 36.6 ± 0.67 | [(η^6-p-cymene)Ru(m-ClPIP)Cl]Cl [RAP052] |
| 6.59 ± 2.26 | [(η^6-p-cymene)Ru(m-BrPIP)Cl]Cl [RAP062] |
| 11.8 ± 0.9 | [(η^6-p-cymene)Ru(p-NO2PIP)Cl]Cl [RAP143] |

| Compound | IC50 [µM] |
| --- | --- |
| N.N.[Cl][Pt][Cl] [cis-platin, reference compound] | 93.1 ± 0.9 |

System: human esophageal carcinoma EC-1 cells
Test: MTT assay on human esophageal carcinoma EC-1 cells
Assay type: cell-based
Conditions: 72 h, 5-80 μM, read-out: The inhibitory effect IC50 on human esophageal carcinoma EC-1 cells
Method: The Antiproliferative Activities of Arene Ruthenium (II) Complexes Against Human Esophageal Carcinoma EC-1 Cells.
as §1, with “complex against human esophageal carcinoma EC-1 cells were” for “complex against rat glioma C6 cells were”, “medium of human esophageal carcinoma EC-1 cells in” for “medium of the rat glioma C6 cells in”, “with 200 µL/well in 6” for “with 200 μL/well in 6”, “80 μM respectively and maintain” for “80 μM respectively, and maintain”, “and incubated at 37° C. for 4” for “and incubated for 4”
According to the values of cell viability, calculating the inhibitory activities (IC50) of the target complex against human esophageal carcinoma EC-1 cells.

| IC50 [µM] | Compound |
| --- | --- |
| 18.2 ± 0.5 | [(η^6-p-cymene)Ru(p-FPIP)Cl]Cl [RAP04] |
| 6.9 ± 0.2 | [(η^6-p-cymene)Ru(p-CF3PIP)Cl]Cl [RAP083] |
| 18.4 ± 11.7 | [(η^6-p-cymene)Ru(p-CH3PIP)Cl]Cl [RAP273] |
| 18.1 ± 1.7 | [(η^6-p-cymene)Ru(p-BrPIP)Cl]Cl [RAP07] |

| Compound | IC50 [µM] |
| --- | --- |
| N.N.[Cl][Pt][Cl] [cis-platin, reference compound] | 9.4 ± 0.21 |

System: human epidermal HaCaT cells
Test: MTT assay on human epidermal HaCaT cells
Assay type: cell-based
Conditions: 72 h, 5-80 μM, normal epidermal cells, read-out: The inhibitory effect IC50 on human epidermal HaCaT cells
Method: The Antiproliferative Activities of Arene Ruthenium (II) Complexes Against Human Epidermal HaCaT Cells.
The antiproliferative effects of arene ruthenium (II) complex against human epidermal HaCaT cells were evaluated by MTT assay. Discarding the medium of human epidermal HaCaT cells in exponential growth phase and washing the cells twice with phosphate-buffered saline (PBS), dissociating into single cells by digesting with 1 mL trypsin. Adding fresh medium to dilute cell population to 1.5×10^4 cells/mL, inoculating into 96-well tissue culture plates (3×10^3 cells per well) with 200 μL/well in 6 wells of each group, repeating twice, and then culturing at 37° C. in 5% CO2 saturated humidity incubator for 16 h. After adherent cells are apparent, carefully removing the supernatant and adding DMEM media. Meanwhile, the cells were incubated with different concentrations of arene ruthenium (II) complexes with a final concentration of 5, 10, 20, 40 and 80 μM respectively and maintain the total volume at 200 µL/well. Thereafter, the cells were cultured for 72 h. At the end of incubation, 20 μL/well of MTT solution (5 mg/mL) was added and incubated at 37° C. for 4 h. Removing the supernatant carefully and replaced with 150 μL/well of DMSO and oscillated for 10 min to ensure complete dissolution of the formazan crystallization. The absorbance values were measured at 490 nm using a microplate reader. Cell viability was calculated according to the following formula: Cell viability (%)=A490 nm (cells in experimental group)/A490 nm (cells in control group)×100%
According to the values of cell viability, calculating the inhibitory activities (IC50) of the target complex against human epidermal HaCaT cells.

| Compound | IC50 [µM] |
| --- | --- |
| [(η^6-p-cymene)Ru(p-CF3PIP)Cl]Cl [RAP083] | > 100 |
| N.N.[Cl][Pt][Cl] [cis-platin, reference compound] | 17.1 ± 0.8 |
| [(η^6-p-cymene)Ru(o-BrPIP)Cl]Cl [RAP061] | > 100 |
| [(η^6-p-cymene)Ru(m-BrPIP)Cl]Cl [RAP062] | 37.3 ± 1.99 |
| [(η^6-p-cymene)Ru(p-N(CH3)2PIP)Cl]Cl [RAP093] | > 100 |

System: MDA-MB-231 cells
Test: Cell cycle analysis by flow cytometry (PI staining)
Assay type: cell-based
Conditions: FIG. 75
Method: After incubating with arene ruthenium (II) complex RAP07, the cell cycle arrest of MDA-MB-231 cells was analyzed with an Epics XL-MCL flow cytometer. The general method is: Trypsinizing the cells with trypsin, washing the cells with phosphate-buffered saline (PBS), and fixing the cells with 70% ethanol overnight at −20° C. Washing the fixed cells with phosphate-buffered saline (PBS) and staining with propidium iodide (PI) for 4 hours in the dark. Finally, the cell cycle arrest was analyzed using an Epics XL-MCL flow cytometer, cell cycle distribution was analyzed using MultiCycle software (Phoenix Flow Systems, San Diego, Calif.). The number of apoptotic cells with sub-diploid DNA were determined by measuring the […] in the cell cycle, every 10000 cells of each sample were recorded.

| Compound | Cell cycle arrest of MDA-MB-231 cells |
| --- | --- |
| [(η^6-p-cymene)Ru(p-BrPIP)Cl]Cl [RAP07] | Induces the S-Phase Arrest |

System: nasopharyngeal carcinoma cells
Test: not given
Conditions: read-out: anti-proliferative activity IC50, nasopharyngeal carcinoma cells; cited from earlier work

| Compound | IC50 [µM] |
| --- | --- |
| [(η^6-p-cymene)Ru(C6H5-BzTSC)Cl]Cl | 20 |

System: lung cancer cells
Test: not given
Conditions: read-out: anti-proliferative activity IC50, lung cancer cells; cited from earlier work

| Compound | IC50 [µM] |
| --- | --- |
| [(η^6-p-cymene)Ru(C6H5-BzTSC)Cl]Cl | 31 |

System: breast cancer cells
Test: not given
Conditions: read-out: anti-proliferative activity IC50, breast cancer cells; cited from earlier work

| Compound | IC50 [µM] |
| --- | --- |
| [(η^6-p-cymene)Ru(C6H5-BzTSC)Cl]Cl | 10 |

System: ovarian cancer cells
Test: not given
Conditions: read-out: anti-proliferative activity IC50, ovarian cancer cells; cited from earlier work

| Compound | IC50 [µM] |
| --- | --- |
| [(η^6-p-cymene)Ru(C6H5-BzTSC)Cl]Cl | 34 |
